Data: patent publication US20260232629A1, “Covalent Degraders of Oncogenic Transcription Factors” (The Regents of the University of California, priority 2023, published 2026)

Key:
CTNNB1 [1] = molecular target: T1, CTNNB1 (Homo sapiens, UniProt P35222); assay: Western blotting of CTNNB1 in cells; format: cell-based; details: proteasome dependence
T1 construct: endogenous in cells; host or cells: HEK293T, HT29, COLO-201, SW480
T1 sequence (P35222 1-781): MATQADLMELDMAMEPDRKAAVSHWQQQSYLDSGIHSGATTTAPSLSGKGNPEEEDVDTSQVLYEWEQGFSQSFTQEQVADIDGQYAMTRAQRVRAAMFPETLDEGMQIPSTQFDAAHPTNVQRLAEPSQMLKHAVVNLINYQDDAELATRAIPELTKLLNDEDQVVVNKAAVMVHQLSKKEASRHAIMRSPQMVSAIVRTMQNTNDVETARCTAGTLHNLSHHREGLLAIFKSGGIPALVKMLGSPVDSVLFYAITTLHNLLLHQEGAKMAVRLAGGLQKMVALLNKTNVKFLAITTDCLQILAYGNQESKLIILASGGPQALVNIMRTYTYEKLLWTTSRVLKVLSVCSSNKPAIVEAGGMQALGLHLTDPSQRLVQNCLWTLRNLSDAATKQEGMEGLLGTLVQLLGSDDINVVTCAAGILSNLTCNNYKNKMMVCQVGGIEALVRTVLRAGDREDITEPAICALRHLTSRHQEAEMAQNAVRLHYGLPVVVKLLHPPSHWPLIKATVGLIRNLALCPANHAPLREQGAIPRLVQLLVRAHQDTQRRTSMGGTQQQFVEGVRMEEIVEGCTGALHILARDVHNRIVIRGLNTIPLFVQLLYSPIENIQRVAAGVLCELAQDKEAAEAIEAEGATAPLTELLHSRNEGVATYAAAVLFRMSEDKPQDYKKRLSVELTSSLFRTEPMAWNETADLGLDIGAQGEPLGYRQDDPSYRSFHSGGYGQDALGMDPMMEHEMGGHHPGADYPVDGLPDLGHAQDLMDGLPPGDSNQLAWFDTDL
Procedure: Pelleted cells are lysed with CST buffer containing protease inhibitor cocktail (Pierce A32955). Samples were centrifuged at 20,000 g for 20 min at 4° C. to remove cell debris. Samples' protein content was normalized to run 30 μg per well. Samples were then boiled for 8 min at 90° C. after addition of 4×reducing Laemmli SDS sample loading buffer (Alfa Aesar) and ran on precast 4-20% Criterion TGX gels (Bio-Rad).
Antibodies to CTNNB1 (Cell Signaling Technology, 8814S), GAPDH (Proteintech Group Inc., 60004-1-Ig or Cell Signaling Technology, 14C10), and DDDDK tag (Abcam, ab205606) were diluted per recommended manufacturers' procedures. Proteins were resolved by SDS/PAGE and transferred to nitrocellulose membranes using the BioRad system (1704271 and 1704150). Blots were blocked with 5% BSA in Tris-buffered saline containing Tween 20 (TBST) solution for 1 hour at room temperature, washed in TBST, and probed with primary antibody diluted in recommended diluent per manufacturer overnight at 4° C. Following washes with TBST, the blots were incubated in the dark with secondary antibodies purchased from Ly-Cor and used at 1:10,000 dilution in 5% BSA in TBST at room temperature. Blots were visualized using an Odyssey Li-Cor scanner after additional washes. If additional primary antibody incubations were required the membrane was stripped using ReBlot Plus Strong Antibody Stripping Solution (EMD Millipore, 2504), washed and blocked again before being reincubated with primary antibody.

[2] = molecular target: T2, CTNNB1 with a N-terminal HiBiT tag (Homo sapiens, UniProt P35222); assay: CTNNB1 HiBiT cell line assay (Nano-Glo HiBiT lytic detection); format: cell-based; details: HEK293 cells expressing endogenous N-terminal HiBiT-tagged CTNNB1
T2 construct: N-terminal HiBiT tag incorporated into the endogenous loci of CTNNB1; host or cells: HEK293 (CTNNB1 HiBiT knock-in line)
T2 sequence (P35222 1-781): T1 sequence (P35222 1-781)
Procedure: To identify a covalent degrader of CTNNB1, we screened a library of 2100 cysteine-reactive covalent ligands consisting of acrylamides and chloroacetamides in HEK293 cells expressing CTNNB1 with a N-terminal HiBiT tag incorporated into the endogenous loci of CTNNB1. We identified 17 hits lowered CTNNB1 levels.
Covalent ligand screen and dose responses were conducted using Promega Nano-Glo HiBiT Lytic Detection System (N3040) and CellTiter-Glo 2.0 Assay (G9242). HiBiT cells were seeded into 96-well plates (Corning 3917) at 35,000 cells per 100 μL of media and were left overnight to adhere. Cells were treated with 25 μL of media containing 1:125 dilution from a 1000×DMSO compound stock and treated for either 6 hrs, 12 hrs, or 24 hrs. […] 125 μL of CTG or Lytic detection system reagents were added to each well. To assess the cells in the supernatant, half of the plates had the media removed prior to the addition of CTG or lytic detection system reagents. Plates were rocked for 15 minutes prior to their luminescence readout on the Tecan Spark Plate reader (30086376).

[3] = molecular target: T3, pure human CTNNB1 protein (Homo sapiens, UniProt P35222); assay: Gel-based ABPP with CTNNB1 pure protein (IA-Rhodamine displacement); format: binding; details: displacement of cysteine-reactive fluorescent probe
T3 sequence (P35222 1-781): T1 sequence (P35222 1-781)
Procedure: CTNNB1 pure protein (0.1 μg/25 μL in PBS) was treated with either DMSO vehicle or covalent ligand at 37° C. for 30 min, and subsequently treated with 0.1 μM IA-Rhodamine (Setareh Biotech) for 1 h at RT in the dark. The reaction was stopped by addition of 4×reducing Laemmli SDS sample loading buffer (Alfa Aesar). After boiling at 95° C. for 5 min, the samples were separated on precast 4-20% Criterion TGX gels (Bio-Rad) and were analyzed by in-gel fluorescence using a ChemiDoc MP (Bio-Rad).

CTNNB1 pure protein = molecular target: T4, CTNNB1 pure protein (Homo sapiens, UniProt P35222); assay: NF686 probe labeling on CTNNB1 pure protein; format: binding; details: alkyne probe, click to fluorescent azide, in-gel fluorescence
T4 sequence (P35222 1-781): T1 sequence (P35222 1-781)
Procedure: CTNNB1 pure protein (0.2 μg/50 μL in PBS) was treated with either DMSO vehicle or NF686 at 37° C. for 30 min. Click reagents Azide-Fluor 545 (Click Chemistry Tools, Inc. AZ109-5), Copper (II) Sulfate, and TBTA (TCI Chemicals, T2993) were added to have a final concentration of 21.8 μM, 873.4 μM, and 47.2 μg/mL, respectively, for 1 hr at RT in the dark. The reaction was stopped by addition of 4×reducing Laemmli SDS sample loading buffer (Alfa Aesar). After boiling samples at 95° C. for 5 min, the samples were separated on precast 4-20% Criterion TGX gels (Bio-Rad). Probe-labeled proteins were analyzed by in-gel fluorescence using a ChemiDoc MP (Bio-Rad).

CTNNB1 [4] = molecular target: T1, CTNNB1; assay: Alkyne probe enrichment of CTNNB1 from cells; format: cell-based; details: in cells; GAPDH as unrelated target
[5] = system: FLAG-tagged wild-type, C439S, C466S, C520S, or C619S mutant CTNNB1; assay: Degradation of FLAG-tagged wild-type or cysteine-to-serine mutant CTNNB1 in cells; format: cell-based; details: FLAG-tagged CTNNB1 wild-type vs C439S
From the text: We next sought to confirm the contributions of the cysteines targeted by EN83 in CTNNB1 to CTNNB1 degradation.

[6] = molecular target: T5, proteome-wide cysteine-reactivity (C619 on CTNNB1) (Homo sapiens, UniProt P35222); assay: isoDTB-ABPP, proteome-wide cysteine-reactivity in cells; format: cell-based
T5 construct: endogenous in cells
T5 sequence (P35222 1-781): T1 sequence (P35222 1-781)
From the text: We next wanted to confirm that EN83 engages CTNNB1 in cells. […] We next performed a mass spectrometry-based ABPP or isodesthiobiotin-ABPP (isoDTB-ABPP) to map overall proteome-wide cysteine-reactivity of EN83 in cells using previously established methods. […] Among the off-targets of EN83, none of the targets were within the Wnt signaling pathway, including AXIN1, BTRC, or GSK3A or GSK3B.

CTNNB1 [7] = molecular target: T1, CTNNB1; assay: Cellular thermal shift assay; format: cell-based; details: cellular treatment

Row | SMILES | CTNNB1 protein levels by Western blotting (CTNNB1 [1]) | CTNNB1 HiBiT levels [2] | binding to CTNNB1 by gel-based ABPP [3] | also measured
1 | COc1ccc(C(F)(F)F)cc1C1CCCN1C(=O)CCl (stereo not drawn) [NF740, 2-chloro-1-(2-(2-methoxy-5-(trifluoromethyl)phenyl)pyrrolidin-1-yl)ethan-1-one] | confirmed to be proteasome-dependent | lowering CTNNB1 HiBiT levels in HEK293 cells in a dose-responsive manner | tolerated | –
2 | C#CCCCNC(=O)c1ccc(OC)c([C@@H]2CCCN2C(=O)CCl)c1 [NF686, (S)-3-(1-(2-chloroacetyl)pyrrolidin-2-yl)-4-methoxy-N-(pent-4-yn-1-yl)benzamide] | – | – | – | direct probe labeling of pure CTNNB1 protein (CTNNB1 pure protein): direct covalent dose-responsive probe labeling of pure CTNNB1 protein; enrichment of CTNNB1 from cells with alkyne probe (CTNNB1 [4]): CTNNB1 could be enriched from cells with the probes without enriching unrelated targets such as GAPDH
3 | CCC(=O)N1CCCC1c1cc(OC)ccc1OC (stereo not drawn) [NF602, 1-(2-(2,5-dimethoxyphenyl)pyrrolidin-1-yl)propan-1-one] | does not alter CTNNB1 levels | does not alter CTNNB1 levels | does not show binding to CTNNB1 | –
4 | COc1ccc(OC)c(C2CCCN2C(=O)CCl)c1 (racemic) [EN83] | – | dose-responsive CTNNB1 loss that was significantly attenuated by proteasome or NEDDylation inhibition | dose-responsively displaced cysteine-reactive fluorescent probe labeling of pure human CTNNB1 protein | effect of cysteine mutation on CTNNB1 degradation [5]: mutation of C466, C520, or C619, but not C439, to serines significantly attenuated CTNNB1 degradation in cells; number of other targets significantly engaged by over 50% ([6]; among 8251 cysteines detected and quantified, three biological replicates): 139; proteome-wide selectivity ([6]; isoDTB-ABPP in cells): only moderately selective; engagement of CTNNB1 cysteine in cells ([6]; isoDTB-ABPP, three biological replicates): significantly engaged C619 on CTNNB1; thermal stability of CTNNB1 in cells (CTNNB1 [7]): significant thermal destabilization of CTNNB1 in cells
5 | COc1ccc(C(F)(F)F)cc1C1CCCN1C(=O)/C=C/C(=O)c1ccccc1 (stereo not drawn) [NF765, (E)-1-(2-(2-methoxy-5-(trifluoromethyl)phenyl)pyrrolidin-1-yl)-4-phenylbut-2-ene-1,4-dione] | lowered CTNNB1 protein levels in cells in a proteasome-dependent manner | more potent loss of CTNNB1 HiBiT levels | improved CTNNB1 binding | –
6 | COc1ccc(C(F)(F)F)c(C2CCCN2C(=O)CCl)c1 (stereo not drawn) [NF741, 2-chloro-1-(2-(5-methoxy-2-(trifluoromethyl)phenyl)pyrrolidin-1-yl)ethan-1-one] | confirmed to be proteasome-dependent | lowering CTNNB1 HiBiT levels in HEK293 cells in a dose-responsive manner | tolerated | –
7 | COc1ccc(C(F)(F)F)c(C2CCCN2C(=O)/C=C/C(=O)c2ccccc2)c1 (stereo not drawn) [NF764, (E)-1-(2-(5-methoxy-2-(trifluoromethyl)phenyl)pyrrolidin-1-yl)-4-phenylbut-2-ene-1,4-dione] | lowered CTNNB1 protein levels in cells in a proteasome-dependent manner | more potent loss of CTNNB1 HiBiT levels | improved CTNNB1 binding | –
